According to ChEMBL document CHEMBL3885881, “DrugMatrix”:

Organism: Rattus norvegicus
Experiment: DrugMatrix - Regimen: Daily Repeat
Assay type: toxicity, organism-based, Sprague-Dawley
Set-up: regimen Daily Repeat, gender Male, age 6-8 weeks
Settings: in vivo, po, 56 mg/kg, route oral GAVAGE, […]
[1] = 72 h, tissue Plasma, dose level Low, time 3 day
[2] = 120 h, tissue Blood, dose level High, time 5 day
[3] = 120 h, tissue Blood, dose level Low, time 5 day
[4] = 120 h, tissue Plasma, dose level High, time 5 day
[5] = 120 h, tissue Plasma, dose level Low, time 5 day
[6] = tissue Blood, dose level High, time 28 day
[7] = tissue Plasma, dose level High, time 28 day

NC[C@@H]1O[C@H](O[C@H]2[C@@H](O)[C@H](O[C@@H]3[C@@H](O)[C@H](N)C[C@H](N)[C@H]3O[C@H]3O[C@H](CN)[C@@H](O)[C@H](O)[C@H]3N)O[C@@H]2CO)[C@H](N)[C@@H](O)[C@@H]1O [FRAMYCETIN]
CREATININE [1]: 0.19 mg/dL | GLUCOSE [1]: 156.33 mg/dL | LACTATE DEHYDROGENASE [1]: 107.33 u/L | LIPASE [1]: 10.33 u/L | PHOSPHORUS [1]: 10.8 mg/dL | POTASSIUM [1]: 5.83 MEQ/L | SODIUM [1]: 143.17 MEQ/L | TOTAL BILIRUBIN [1]: 0.1 mg/dL | TOTAL PROTEIN [1]: 5.97 G/DL | URIC ACID [1]: 0.4 mg/dL | BASOPHIL [2]: 0.36% | EOSINOPHIL [2]: 0.6% | ERYTHROCYTE COUNT [2]: 7.45 x10E6/uL | HEMATOCRIT [2]: 49.44% | HEMOGLOBIN [2]: 15.6 G/DL | LEUKOCYTE COUNT [2]: 6.84 x10E3/uL | LYMPHOCYTE [2]: 82.08% | MEAN CORPUSCULAR HEMOGLOBIN [2]: 20.94 pg | MEAN CORPUSCULAR HEMOGLOBIN CONCENTRATION [2]: 31.58 G/DL | MEAN CORPUSCULAR VOLUME [2]: 66.34 fL | MONOCYTE [2]: 1.68% | NEUTROPHIL [2]: 14.3% | PLATELET COUNT [2]: 1274.6 x10E3/uL | ABSOLUTE BASOPHIL [3]: 0 CELLS/uL | ABSOLUTE EOSINOPHIL [3]: 0 CELLS/uL | ABSOLUTE LYMPHOCYTE [3]: 7805 CELLS/uL | ABSOLUTE MONOCYTE [3]: 76.67 CELLS/uL | ABSOLUTE SEGMENTED NEUTROPHIL [3]: 785 CELLS/uL | BASOPHIL [3]: 0% | EOSINOPHIL [3]: 0% | ERYTHROCYTE COUNT [3]: 5.67 x10E6/uL | HEMATOCRIT [3]: 34.13% | HEMOGLOBIN [3]: 13.3 G/DL | LEUKOCYTE COUNT [3]: 8.67 x10E3/uL | LYMPHOCYTE [3]: 89.33% | MEAN CORPUSCULAR HEMOGLOBIN [3]: 23.47 pg | MEAN CORPUSCULAR HEMOGLOBIN CONCENTRATION [3]: 38.97 G/DL | MEAN CORPUSCULAR VOLUME [3]: 60.2 fL | MONOCYTE [3]: 1% | NEUTROPHIL [3]: 9.67% | NUCLEATED RED BLOOD CELLS [3]: 0 /100WBC | PLATELET COUNT [3]: 1077 x10E3/uL | ALANINE AMINOTRANSFERASE [4]: 29 u/L | ALBUMIN [4]: 3.74 G/DL | ALKALINE PHOSPHATASE [4]: 336 u/L | ASPARTATE AMINOTRANSFERASE [4]: 73.8 u/L | BLOOD UREA NITROGEN [4]: 6.6 mg/dL | CHLORIDE [4]: 109.6 MEQ/L | CHOLESTEROL [4]: 60.6 mg/dL | CREATINE PHOSPHOKINASE [4]: 307 u/L | CREATININE [4]: 0.28 mg/dL | GLUCOSE [4]: 128.6 mg/dL | PHOSPHORUS [4]: 13.88 mg/dL | POTASSIUM [4]: 6.96 MEQ/L | SODIUM [4]: 151.8 MEQ/L | TOTAL BILIRUBIN [4]: 0.16 mg/dL | TOTAL PROTEIN [4]: 6.22 G/DL | ALANINE AMINOTRANSFERASE [5]: 68.67 u/L | ALBUMIN [5]: 4.03 G/DL | ALKALINE PHOSPHATASE [5]: 434 u/L | ASPARTATE AMINOTRANSFERASE [5]: 94.67 u/L | BLOOD UREA NITROGEN [5]: 12 mg/dL | CARBON DIOXIDE [5]: 26.33 mmol/L | CHLORIDE [5]: 104 MEQ/L | CHOLESTEROL [5]: 74.67 mg/dL | CREATINE PHOSPHOKINASE [5]: 481.67 u/L | CREATININE [5]: 0.23 mg/dL | GLUCOSE [5]: 156.33 mg/dL | LACTATE DEHYDROGENASE [5]: 224 u/L | LIPASE [5]: 10.33 u/L | PHOSPHORUS [5]: 10.57 mg/dL | POTASSIUM [5]: 6.71 MEQ/L | SODIUM [5]: 148.83 MEQ/L | TOTAL BILIRUBIN [5]: 0.17 mg/dL | TOTAL PROTEIN [5]: 6.03 G/DL | URIC ACID [5]: 1.13 mg/dL | BASOPHIL [6]: 0.48% | EOSINOPHIL [6]: 0.51% | ERYTHROCYTE COUNT [6]: 8.01 x10E6/uL | HEMATOCRIT [6]: 48.92% | HEMOGLOBIN [6]: 15.88 G/DL | LEUKOCYTE COUNT [6]: 12.82 x10E3/uL | LYMPHOCYTE [6]: 83.46% | MEAN CORPUSCULAR HEMOGLOBIN [6]: 19.85 pg | MEAN CORPUSCULAR HEMOGLOBIN CONCENTRATION [6]: 32.47 G/DL | MEAN CORPUSCULAR VOLUME [6]: 61.12 fL | MONOCYTE [6]: 1.54% | NEUTROPHIL [6]: 12.95% | PLATELET COUNT [6]: 1208.1 x10E3/uL | ALANINE AMINOTRANSFERASE [7]: 26.9 u/L | ALBUMIN [7]: 3.85 G/DL | ALKALINE PHOSPHATASE [7]: 200.9 u/L | ASPARTATE AMINOTRANSFERASE [7]: 62.4 u/L | BLOOD UREA NITROGEN [7]: 11 mg/dL | CHLORIDE [7]: 107.1 MEQ/L | CHOLESTEROL [7]: 54.5 mg/dL | CREATINE PHOSPHOKINASE [7]: 177.2 u/L | CREATININE [7]: 0.38 mg/dL | GLUCOSE [7]: 135.2 mg/dL | PHOSPHORUS [7]: 11.16 mg/dL | POTASSIUM [7]: 6.5 MEQ/L | SODIUM [7]: 151.5 MEQ/L | TOTAL BILIRUBIN [7]: 0.22 mg/dL | TOTAL PROTEIN [7]: 6.52 G/DL
